Reference: ChEMBL document CHEMBL1201862, “PubChem BioAssay data set” (2004)
Active and inactive are the calls of the source.

Experiments:
[1] = molecular target: T1, Sentrin-specific protease 6 (Homo sapiens, UniProt Q9GZR1); assay type: functional;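 note: Luminescence-based dose-response confirmatory assay of SENP6 inhibition, following up an ultra-high-throughput screen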
T1 sequence (Q9GZR1 whole entry): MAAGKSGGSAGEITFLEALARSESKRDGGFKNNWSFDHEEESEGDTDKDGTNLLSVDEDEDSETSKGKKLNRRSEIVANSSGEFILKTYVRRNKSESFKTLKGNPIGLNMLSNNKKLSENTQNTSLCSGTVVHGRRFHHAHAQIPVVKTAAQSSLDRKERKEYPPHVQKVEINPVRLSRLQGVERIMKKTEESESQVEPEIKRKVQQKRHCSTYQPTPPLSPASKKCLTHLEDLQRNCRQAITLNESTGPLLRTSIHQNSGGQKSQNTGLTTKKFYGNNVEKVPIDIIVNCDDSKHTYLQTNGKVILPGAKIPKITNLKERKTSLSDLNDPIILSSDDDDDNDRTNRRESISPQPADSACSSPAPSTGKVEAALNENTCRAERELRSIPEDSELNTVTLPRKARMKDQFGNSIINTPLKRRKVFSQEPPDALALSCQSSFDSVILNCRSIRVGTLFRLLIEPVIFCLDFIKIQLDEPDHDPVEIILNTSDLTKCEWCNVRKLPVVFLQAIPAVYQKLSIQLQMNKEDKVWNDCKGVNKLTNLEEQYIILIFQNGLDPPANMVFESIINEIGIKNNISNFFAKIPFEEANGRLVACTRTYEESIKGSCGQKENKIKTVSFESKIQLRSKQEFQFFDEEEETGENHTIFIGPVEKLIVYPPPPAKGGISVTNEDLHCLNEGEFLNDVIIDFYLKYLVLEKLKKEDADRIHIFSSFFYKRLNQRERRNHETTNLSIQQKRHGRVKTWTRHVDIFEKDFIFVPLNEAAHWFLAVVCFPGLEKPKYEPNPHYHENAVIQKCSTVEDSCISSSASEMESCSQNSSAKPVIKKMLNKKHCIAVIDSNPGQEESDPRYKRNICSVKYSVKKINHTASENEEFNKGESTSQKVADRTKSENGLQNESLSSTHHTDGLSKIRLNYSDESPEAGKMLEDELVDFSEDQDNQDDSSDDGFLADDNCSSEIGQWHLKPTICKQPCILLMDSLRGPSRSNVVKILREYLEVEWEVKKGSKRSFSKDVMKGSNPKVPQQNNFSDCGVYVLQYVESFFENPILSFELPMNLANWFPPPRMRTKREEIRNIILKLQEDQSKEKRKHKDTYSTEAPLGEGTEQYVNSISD

[2] = molecular target: T2, Sentrin-specific protease 7 (Homo sapiens, UniProt Q9BQF6); assay type: functional;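 note: Luminescence-based dose-response confirmation of ultra-high-throughput screening hits, measuring inhibition of SENP7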
T2 sequence (Q9BQF6 whole entry): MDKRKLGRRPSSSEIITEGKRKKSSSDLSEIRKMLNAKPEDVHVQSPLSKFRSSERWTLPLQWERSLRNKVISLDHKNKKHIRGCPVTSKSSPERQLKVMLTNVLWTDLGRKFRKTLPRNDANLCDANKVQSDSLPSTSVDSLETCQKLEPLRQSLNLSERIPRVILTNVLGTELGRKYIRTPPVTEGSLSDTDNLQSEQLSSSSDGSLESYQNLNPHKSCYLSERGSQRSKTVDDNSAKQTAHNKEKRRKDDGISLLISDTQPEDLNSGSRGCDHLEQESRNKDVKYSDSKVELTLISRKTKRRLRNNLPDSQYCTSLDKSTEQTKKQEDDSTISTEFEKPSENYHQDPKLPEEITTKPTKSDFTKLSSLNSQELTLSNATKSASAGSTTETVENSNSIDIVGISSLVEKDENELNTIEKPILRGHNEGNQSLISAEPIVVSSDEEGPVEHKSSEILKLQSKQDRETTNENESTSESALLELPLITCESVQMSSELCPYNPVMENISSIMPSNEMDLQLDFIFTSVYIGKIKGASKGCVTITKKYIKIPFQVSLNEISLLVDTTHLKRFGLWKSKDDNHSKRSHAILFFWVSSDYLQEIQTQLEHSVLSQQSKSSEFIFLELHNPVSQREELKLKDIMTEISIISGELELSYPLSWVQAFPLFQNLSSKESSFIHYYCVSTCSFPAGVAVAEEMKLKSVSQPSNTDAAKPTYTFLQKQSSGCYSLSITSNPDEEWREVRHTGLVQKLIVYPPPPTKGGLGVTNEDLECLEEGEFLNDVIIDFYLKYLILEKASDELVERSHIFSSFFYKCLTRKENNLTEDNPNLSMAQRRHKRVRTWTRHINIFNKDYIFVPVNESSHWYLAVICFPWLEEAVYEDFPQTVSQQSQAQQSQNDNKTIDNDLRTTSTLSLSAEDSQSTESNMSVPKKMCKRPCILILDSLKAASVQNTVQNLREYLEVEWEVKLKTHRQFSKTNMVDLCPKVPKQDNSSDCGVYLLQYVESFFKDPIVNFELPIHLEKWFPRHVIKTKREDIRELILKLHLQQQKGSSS

[3] = molecular target: T3, Sentrin-specific protease 8 (Homo sapiens, UniProt Q96LD8); assay type: functional;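 note: luminescence read-out of SENP8 inhibition, dose-response confirmation following an ultra-high-throughput screen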
T3 sequence (Q96LD8 whole entry): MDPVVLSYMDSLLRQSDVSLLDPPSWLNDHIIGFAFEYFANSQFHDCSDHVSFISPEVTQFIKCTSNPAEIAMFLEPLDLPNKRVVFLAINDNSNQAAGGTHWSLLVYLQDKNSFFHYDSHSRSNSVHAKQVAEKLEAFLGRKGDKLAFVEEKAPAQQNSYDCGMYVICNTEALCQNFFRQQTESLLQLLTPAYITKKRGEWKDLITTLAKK

[4] = molecular target: T4, Heat shock factor protein 1 (Mus musculus, UniProt P38532); test: enhancement of HSF1-driven luciferase signal – cell-based, NIH3T3, luminescence, dose retest, confirmation (AID 435004); assay type: functional;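 note: stress induced by proteasome inhibitor MG132 added 30 min after compound; luciferase reporter driven by HSF1 response element in NIH3T3 cells; actives raise luminescence as potentiators of the MG132 stress response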
T4 sequence (P38532 whole entry): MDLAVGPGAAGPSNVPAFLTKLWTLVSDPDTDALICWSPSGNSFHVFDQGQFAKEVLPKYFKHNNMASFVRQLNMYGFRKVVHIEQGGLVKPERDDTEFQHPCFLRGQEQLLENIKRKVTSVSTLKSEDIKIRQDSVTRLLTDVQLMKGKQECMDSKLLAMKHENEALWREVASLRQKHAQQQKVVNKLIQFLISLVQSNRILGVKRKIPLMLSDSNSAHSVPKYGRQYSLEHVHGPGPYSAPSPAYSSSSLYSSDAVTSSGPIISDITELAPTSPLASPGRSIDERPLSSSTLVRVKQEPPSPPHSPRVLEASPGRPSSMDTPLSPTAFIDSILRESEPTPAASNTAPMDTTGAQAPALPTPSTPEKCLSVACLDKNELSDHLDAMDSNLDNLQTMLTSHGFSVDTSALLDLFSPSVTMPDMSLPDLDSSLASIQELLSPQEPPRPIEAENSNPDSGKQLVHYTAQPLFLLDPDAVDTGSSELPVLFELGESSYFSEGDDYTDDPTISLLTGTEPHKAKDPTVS

Caspase-3 = molecular target: T5, Caspase-3 (Homo sapiens, UniProt P42574); assay type: functional;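 note: Dose-response selectivity test against caspase-3 for candidate inhibitors of sentrin-specific proteases (SENPs)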
T5 sequence (P42574 whole entry): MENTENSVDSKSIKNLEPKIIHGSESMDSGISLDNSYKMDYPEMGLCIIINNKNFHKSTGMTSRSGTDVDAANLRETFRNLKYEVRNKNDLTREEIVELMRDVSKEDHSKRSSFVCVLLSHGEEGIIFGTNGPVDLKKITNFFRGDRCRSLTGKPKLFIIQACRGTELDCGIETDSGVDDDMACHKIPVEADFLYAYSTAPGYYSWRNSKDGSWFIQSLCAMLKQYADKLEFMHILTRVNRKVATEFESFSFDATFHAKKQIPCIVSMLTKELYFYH

Escherichia coli = test: microbe, parasite or virus in culture
[5] = Luminescence Cell-Based Dose Response HTS to Identify Activators of Luciferase Translation or Activity in H4 […] Cells. [Related pubchem assays: 1829 (Project Summary), 1814 (Primary HTS)]; assay type: functional
Vero [6] = test: cells; assay type: functional, cell-based; settings: Chlorocebus sabaeus
H4 = test: Luminescence Cell-Based Dose Response HTS to Identify Activators of 5'UTR Stem-Loop Driven Prion Protein mRNA Translation in H4 Neuroglioblastoma Cells. [Related pubchem assays: 1829 (Project Summary), 1814 (Primary HTS)]; assay type: functional; settings: Homo sapiens
Vero [7] = test: cells; assay type: functional; settings: Chlorocebus sabaeus
Phospholipase A2 = Phospholipase A2 (Homo sapiens, UniProt P04054); assay type: functional;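 note: confirmatory dose-response counterscreen on phospholipase A2, testing hits that came from an ultra-high-throughput screen for ATG4B inhibitors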
Sequence of Phospholipase A2 (P04054 whole entry): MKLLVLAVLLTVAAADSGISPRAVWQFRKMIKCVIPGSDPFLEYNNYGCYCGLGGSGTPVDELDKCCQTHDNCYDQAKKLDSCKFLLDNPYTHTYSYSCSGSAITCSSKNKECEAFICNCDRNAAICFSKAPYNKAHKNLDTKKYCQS

Cysteine protease ATG4B = molecular target: T6, Cysteine protease ATG4B (Homo sapiens, UniProt Q9Y4P1); assay type: functional;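 note: Fluorescence-based dose-response confirmation assay measuring inhibition of ATG4B activity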
T6 sequence (Q9Y4P1 whole entry): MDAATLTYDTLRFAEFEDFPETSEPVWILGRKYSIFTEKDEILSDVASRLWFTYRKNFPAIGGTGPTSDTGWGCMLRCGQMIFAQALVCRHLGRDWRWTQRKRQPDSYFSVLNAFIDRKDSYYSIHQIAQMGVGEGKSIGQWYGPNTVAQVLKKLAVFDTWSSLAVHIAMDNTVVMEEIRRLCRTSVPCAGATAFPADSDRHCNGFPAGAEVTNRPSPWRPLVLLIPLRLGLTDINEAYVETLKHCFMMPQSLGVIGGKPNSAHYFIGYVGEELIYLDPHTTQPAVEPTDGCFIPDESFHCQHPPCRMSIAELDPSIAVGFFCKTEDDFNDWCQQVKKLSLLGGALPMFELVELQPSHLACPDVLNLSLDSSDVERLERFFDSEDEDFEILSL

[8] = viability of uninfected HEp-2 cells – cell-based, HTS, cytotoxicity control for RSV inhibitor project, dose response (AID 2410); assay type: functional; settings: human respiratory syncytial virus
Tumor necrosis factor = Tumor necrosis factor (Homo sapiens, UniProt P01375); test: analog potency on TNFa NF-kB signaling – cell-based, revised, SAR follow-up (AID 2337); assay type: functional
Sequence of Tumor necrosis factor (P01375 whole entry, the tested form may be a part): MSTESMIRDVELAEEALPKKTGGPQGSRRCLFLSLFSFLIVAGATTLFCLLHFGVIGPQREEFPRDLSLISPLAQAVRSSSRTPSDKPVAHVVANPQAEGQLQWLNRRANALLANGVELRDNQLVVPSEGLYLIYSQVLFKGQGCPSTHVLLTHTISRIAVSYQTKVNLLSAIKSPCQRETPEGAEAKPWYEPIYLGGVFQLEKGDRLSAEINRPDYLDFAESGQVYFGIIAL

[9] = molecular target: T7, Nucleotide-binding oligomerization domain-containing protein 1 (Homo sapiens, UniProt Q9Y239); test: blockers of NOD1 pathway activity – revised, SAR follow-up (AID 2333); assay type: functional
T7 sequence (Q9Y239 whole entry): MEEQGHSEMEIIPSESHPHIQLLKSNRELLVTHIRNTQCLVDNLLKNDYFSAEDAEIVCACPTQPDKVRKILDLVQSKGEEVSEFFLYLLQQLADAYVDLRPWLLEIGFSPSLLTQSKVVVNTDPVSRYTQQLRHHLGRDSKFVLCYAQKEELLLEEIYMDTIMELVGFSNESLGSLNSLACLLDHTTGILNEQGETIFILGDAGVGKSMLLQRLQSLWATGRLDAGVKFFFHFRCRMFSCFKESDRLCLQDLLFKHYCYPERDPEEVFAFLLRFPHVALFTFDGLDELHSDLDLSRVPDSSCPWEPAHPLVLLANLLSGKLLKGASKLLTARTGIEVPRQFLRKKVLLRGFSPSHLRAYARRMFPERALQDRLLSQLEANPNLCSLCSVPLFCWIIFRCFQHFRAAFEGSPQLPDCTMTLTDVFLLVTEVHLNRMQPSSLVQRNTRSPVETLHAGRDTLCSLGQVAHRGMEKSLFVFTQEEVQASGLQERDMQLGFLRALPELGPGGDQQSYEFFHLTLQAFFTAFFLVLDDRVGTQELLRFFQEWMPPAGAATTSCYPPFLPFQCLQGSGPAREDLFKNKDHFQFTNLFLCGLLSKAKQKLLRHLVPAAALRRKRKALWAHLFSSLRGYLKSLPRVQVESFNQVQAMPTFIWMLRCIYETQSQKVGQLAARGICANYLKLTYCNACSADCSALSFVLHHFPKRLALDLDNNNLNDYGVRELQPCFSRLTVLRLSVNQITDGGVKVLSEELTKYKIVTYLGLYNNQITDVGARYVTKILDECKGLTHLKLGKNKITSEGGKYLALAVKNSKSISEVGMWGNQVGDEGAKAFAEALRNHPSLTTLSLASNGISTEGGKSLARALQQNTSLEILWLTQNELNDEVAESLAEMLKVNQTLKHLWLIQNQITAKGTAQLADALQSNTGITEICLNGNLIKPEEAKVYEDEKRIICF

HEK293 = test: cells; settings: Homo sapiens;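 note: cells exposed to compound for 14 hours overnight before viability readout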

Question: What does the source list for Oc1nc(SCc2ccc(Cl)cc2)nc2ccsc12?
Answer: IC50 [1]: 6.14 µM (active); IC50 [2]: 8.53 µM (active); IC50 [3]: 68.7 µM (active); EC50 [4]: 21.9 µM (active); IC50 (Caspase-3): 15.2 µM (active)

Question: For CCCCn1c(N)c(N(CCOC)C(=O)COC(=O)C(C)Oc2ccc(Cl)cc2)c(=O)[nH]c1=O (stereo not drawn), which AC50 (Escherichia coli) is on record?
Answer: 22 µM (active)

Question: Which EC50 [5] does the source give for Cc1cc(C(=O)NC2CCCc3c2cnn3-c2cccc(C)c2C)no1 (stereo not drawn) here?
Answer: > 120 µM (not active)

Question: And the IC50 (Vero [6])?
Answer: 1.53 µM (active)

Question: What about the EC50 (H4) of the same molecule?
Answer: > 120 µM (not active)

Question: What does the source list for Cc1nc(SC(C)C(=O)NCC2CCCO2)c2cc(-c3ccccc3)sc2n1 (stereo not drawn)?
Answer: CC50 (Vero [7]): > 25 µM (active); IC50 (Vero [6]): 5.04 µM (active)

Question: Which AC50 (Escherichia coli) does the source give for CCOc1ccc(NC(=O)c2ccc(NC(=O)COC(=O)Cc3ccc(OC)cc3)cc2)cc1 here?
Answer: 21.4 µM (active)

Question: For COc1ccc(Br)cc1CNC(=O)C1CCN(S(=O)(=O)N2CCC(C)CC2)CC1, which IC50 (Phospholipase A2) is on record?
Answer: 6.6 µM (active)

Question: And the IC50 (Cysteine protease ATG4B)?
Answer: 9.71 µM (active)

Question: What does the source list for Oc1ccc(Cl)cc1N=Nc1ccccc1?
Answer: IC50 [1]: 35.4 µM (active); IC50 [2]: 7.8 µM (active); IC50 [3]: > 100 µM (inactive); IC50 (Caspase-3): 23.6 µM (active)

Question: For CCN(CC)C(=O)Oc1ccc2ccccc2c1Br, which CC50 (Vero [7]) is on record?
Answer: 22.7 µM (active)

Question: And the IC50 (Vero [6])?
Answer: > 25 µM (active)

Question: What about the CC50 [8] of the same molecule?
Answer: 44.8 µM (active)

Question: What does the source list for Cc1ccc(-n2cc3ccc([N+](=O)[O-])cc3n2)cc1?
Answer: IC50 [1]: 17.2 µM (active); IC50 [2]: 12.5 µM (active); IC50 [3]: 59.9 µM (active); EC50 [4]: > 260 µM (inconclusive); IC50 (Caspase-3): 34.7 µM (active)

Question: With CC(C)(C)C(=O)/N=C(\N)Nc1nc2ccccc2o1 as the molecule, how does the IC50 (Tumor necrosis factor) read?
Answer: 16.5 µM (active)

Question: And the IC50 [9]?
Answer: > 20 µM (inactive)

Question: And the IC50 (HEK293)?
Answer: > 20 µM (inactive)

Question: Which AC50 (Escherichia coli) does the source give for CCN(Cc1ccccc1)S(=O)(=O)c1c[nH]c(C(=O)OC)c1 here?
Answer: 80.5 µM (active)

Question: For COc1ccccc1OC(=O)c1ccc(C)c(S(=O)(=O)N2CCOCC2)c1, which AC50 (Escherichia coli) is on record?
Answer: 23.7 µM (active)

Question: With COc1ccc(C(=O)/C=C/c2cccnc2)c(OC)c1 as the molecule, how does the CC50 (Vero [7]) read?
Answer: 14.9 µM (active)

Question: What about the IC50 (Vero [6]) of the same molecule?
Answer: > 25 µM (active)
